Assays:
Nluc-PAK1 = target: T1, Nluc-PAK1 (Homo sapiens, UniProt Q13153+Q96SW2); test: Nluc-PAK1 luciferase assay in HEK293 cells; type: cell-based
T1 construct: […]; expressed in transfected cells
Protocol: MCF7 ([…], CVCL_0031) were cultured in high-glucose DMEM medium (Gibco) supplemented with 10% fetal bovine serum (HyClone), 2 mM L-glutamine and 100 U/ml penicillin/streptomycin (Gibco). MOLT4 ([…], CVCL_0013) were cultured in RPMI 1640 medium (Gibco) supplemented with 10% fetal bovine serum and 2 mM L-glutamine. OVCAR3 ([…], CVCL_0465), Hey A8 ([…], CVCL_8878) and OMM1 ([…], CVCL_6939) were cultured in RPMI 1640 medium (Gibco) supplemented with 10% fetal bovine serum, 2 mM L-glutamine and 100 U/ml penicillin/streptomycin (Gibco). All cell lines were cultured at 37° C. in a humidified 5% CO2 incubator. HEK293 cells stably expressing Nluc-PAK1 were constructed by transfecting with the pFN31K Nluc-PAK1 expression vector (0.5 μg DNA per well) in 12-well plates using Lipofectamine™ 3000 (Invitrogen) according to the manufacturer's protocol. Transfected Nluc-PAK1 cells were cultured for 1 week in DMEM medium containing G418 (2 mg mL^−1) to select stable clones.
HEK293 cells stably expressing pFN31K-Nluc-PAK1 were assayed for luciferase activity according to the manufacturer's Nano-Glo® Live Cell Assay System protocol (Promega). In brief, 25 μl of Nano-Glo® Live Cell Reagent was added per well and the plate was gently mixed by hand, then placed in a 37° C. luminometer for 10 minutes.
To better quantify the effect of degrader treatment, HEK293 cells were transfected with an expression vector encoding nano-luciferase (Nluc)-tagged PAK1. The Nluc tag allows for luciferase-based quantitation of protein expression (England, et al. (2016) Bioconjug. Chem., 27:1175-1187). Nluc-PAK1 cells were treated with BJG-05-039 or its N-methylated analog, BJG-05-098, and PAK1 expression was assessed (FIG. 2D).

CAMK2A = CAMK2A (Homo sapiens, UniProt Q9UQM7); test: KINOMEscan; details: read-out: Percent Control
Protocol: (§1) The kinase engagement assay (KINOMEscan®) was performed by DiscoverX assessing binding abilities toward a set of kinases.

PAK7 = PAK7 (Homo sapiens, UniProt Q9P286); test: KINOMEscan; details: read-out: Percent Control
Protocol: as §1

ACVR2A = ACVR2A (Homo sapiens, UniProt P27037); test: KINOMEscan; details: read-out: Percent Control
Protocol: as §1

DMPK = DMPK (Homo sapiens, UniProt Q09013); test: KINOMEscan; details: read-out: Percent Control
Protocol: as §1

GAK = GAK (Homo sapiens, UniProt O14976); test: KINOMEscan; details: read-out: Percent Control
Protocol: as §1

GCN2(Kin.Dom.2, S808G) = GCN2(Kin.Dom.2, S808G) (Homo sapiens, UniProt Q9P2K8, S808G); test: KINOMEscan; details: read-out: Percent Control
Protocol: as §1

PIK3CA = PIK3CA (Homo sapiens, UniProt P42336); test: KINOMEscan; details: read-out: Percent Control
Protocol: as §1

CLK3 = CLK3 (Homo sapiens, UniProt P49761); test: KINOMEscan; details: read-out: Percent Control
Protocol: as §1

CAMK1G = CAMK1G (Homo sapiens, UniProt Q96NX5); test: KINOMEscan; details: read-out: Percent Control
Protocol: as §1

GRK4 = GRK4 (Homo sapiens, UniProt P32298); test: KINOMEscan; details: read-out: Percent Control
Protocol: as §1

WNK1 = WNK1 (Homo sapiens, UniProt Q9H4A3); test: KINOMEscan; details: read-out: Percent Control
Protocol: as §1

PFTAIRE2 = PFTAIRE2 (Homo sapiens, UniProt Q96Q40); test: KINOMEscan; details: read-out: Percent Control
Protocol: as §1

[1] = target: RSK2(Kin.Dom.1-N-terminal) (Homo sapiens, UniProt P51812); test: KINOMEscan; details: read-out: Percent Control
Protocol: as §1

SBK1 = SBK1 (Homo sapiens, UniProt Q52WX2); test: KINOMEscan; details: read-out: Percent Control
Protocol: as §1

STK35 = STK35 (Homo sapiens, UniProt Q8TDR2); test: KINOMEscan; details: read-out: Percent Control
Protocol: as §1

JNK2 = JNK2 (Homo sapiens, UniProt P45984); test: KINOMEscan; details: read-out: Percent Control
Protocol: as §1

RIPK5 = RIPK5 (Homo sapiens, UniProt Q6XUX3); test: KINOMEscan; details: read-out: Percent Control
Protocol: as §1

[2] = target: RSK3(Kin.Dom.1-N-terminal) (Homo sapiens, UniProt Q15349); test: KINOMEscan; details: read-out: Percent Control
Protocol: as §1

SYK = SYK (Homo sapiens, UniProt P43405); test: KINOMEscan; details: read-out: Percent Control
Protocol: as §1

IKK-beta = IKK-beta (Homo sapiens, UniProt O14920); test: KINOMEscan; details: read-out: Percent Control
Protocol: as §1

FGFR3(G697C) = FGFR3(G697C) (Homo sapiens, UniProt P22607, G697C); test: KINOMEscan; details: read-out: Percent Control
Protocol: as §1

[3] = target: ABL1(Q252H)-phosphorylated (Homo sapiens, UniProt P00519, Q252H); test: KINOMEscan; details: read-out: Percent Control
Protocol: as §1

[4] = target: ABL1(Y253F)-phosphorylated (Homo sapiens, UniProt P00519, Y253F); test: KINOMEscan; details: read-out: Percent Control
Protocol: as §1

AURKA = AURKA (Homo sapiens, UniProt O14965); test: KINOMEscan; details: read-out: Percent Control
Protocol: as §1

CSF1R-autoinhibited = CSF1R-autoinhibited (Homo sapiens, UniProt P07333); test: KINOMEscan; details: read-out: Percent Control
Protocol: as §1

MARK4 = MARK4 (Homo sapiens, UniProt Q96L34); test: KINOMEscan; details: read-out: Percent Control
Protocol: as §1

T1 sequence (Q13153 whole entry): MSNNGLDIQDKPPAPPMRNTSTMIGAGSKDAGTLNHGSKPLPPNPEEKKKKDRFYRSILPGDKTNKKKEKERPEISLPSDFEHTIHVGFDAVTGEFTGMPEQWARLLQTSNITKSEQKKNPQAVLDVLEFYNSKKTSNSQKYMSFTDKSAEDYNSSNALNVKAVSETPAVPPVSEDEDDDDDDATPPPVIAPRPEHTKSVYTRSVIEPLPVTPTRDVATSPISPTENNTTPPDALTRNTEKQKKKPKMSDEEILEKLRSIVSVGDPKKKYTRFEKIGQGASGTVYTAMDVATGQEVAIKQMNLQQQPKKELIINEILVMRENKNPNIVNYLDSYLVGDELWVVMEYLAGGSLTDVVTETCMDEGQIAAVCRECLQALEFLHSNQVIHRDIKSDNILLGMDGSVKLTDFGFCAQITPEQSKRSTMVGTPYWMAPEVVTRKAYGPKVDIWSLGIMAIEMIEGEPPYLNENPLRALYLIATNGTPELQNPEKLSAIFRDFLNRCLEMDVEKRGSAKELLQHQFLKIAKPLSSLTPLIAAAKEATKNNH
T1 sequence (Q96SW2 whole entry): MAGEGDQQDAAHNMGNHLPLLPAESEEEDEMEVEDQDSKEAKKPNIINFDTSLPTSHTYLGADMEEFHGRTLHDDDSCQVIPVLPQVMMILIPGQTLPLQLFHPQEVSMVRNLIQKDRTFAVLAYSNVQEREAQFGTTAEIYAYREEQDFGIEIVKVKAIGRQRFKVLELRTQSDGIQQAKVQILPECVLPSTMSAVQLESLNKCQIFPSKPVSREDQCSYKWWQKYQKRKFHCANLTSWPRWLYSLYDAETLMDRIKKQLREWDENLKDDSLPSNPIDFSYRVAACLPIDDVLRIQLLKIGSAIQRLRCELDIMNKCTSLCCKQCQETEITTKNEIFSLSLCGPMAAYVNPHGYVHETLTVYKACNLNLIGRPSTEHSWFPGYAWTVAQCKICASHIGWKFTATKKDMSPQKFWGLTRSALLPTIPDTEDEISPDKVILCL
T1 sequence (Q16531 whole entry partner): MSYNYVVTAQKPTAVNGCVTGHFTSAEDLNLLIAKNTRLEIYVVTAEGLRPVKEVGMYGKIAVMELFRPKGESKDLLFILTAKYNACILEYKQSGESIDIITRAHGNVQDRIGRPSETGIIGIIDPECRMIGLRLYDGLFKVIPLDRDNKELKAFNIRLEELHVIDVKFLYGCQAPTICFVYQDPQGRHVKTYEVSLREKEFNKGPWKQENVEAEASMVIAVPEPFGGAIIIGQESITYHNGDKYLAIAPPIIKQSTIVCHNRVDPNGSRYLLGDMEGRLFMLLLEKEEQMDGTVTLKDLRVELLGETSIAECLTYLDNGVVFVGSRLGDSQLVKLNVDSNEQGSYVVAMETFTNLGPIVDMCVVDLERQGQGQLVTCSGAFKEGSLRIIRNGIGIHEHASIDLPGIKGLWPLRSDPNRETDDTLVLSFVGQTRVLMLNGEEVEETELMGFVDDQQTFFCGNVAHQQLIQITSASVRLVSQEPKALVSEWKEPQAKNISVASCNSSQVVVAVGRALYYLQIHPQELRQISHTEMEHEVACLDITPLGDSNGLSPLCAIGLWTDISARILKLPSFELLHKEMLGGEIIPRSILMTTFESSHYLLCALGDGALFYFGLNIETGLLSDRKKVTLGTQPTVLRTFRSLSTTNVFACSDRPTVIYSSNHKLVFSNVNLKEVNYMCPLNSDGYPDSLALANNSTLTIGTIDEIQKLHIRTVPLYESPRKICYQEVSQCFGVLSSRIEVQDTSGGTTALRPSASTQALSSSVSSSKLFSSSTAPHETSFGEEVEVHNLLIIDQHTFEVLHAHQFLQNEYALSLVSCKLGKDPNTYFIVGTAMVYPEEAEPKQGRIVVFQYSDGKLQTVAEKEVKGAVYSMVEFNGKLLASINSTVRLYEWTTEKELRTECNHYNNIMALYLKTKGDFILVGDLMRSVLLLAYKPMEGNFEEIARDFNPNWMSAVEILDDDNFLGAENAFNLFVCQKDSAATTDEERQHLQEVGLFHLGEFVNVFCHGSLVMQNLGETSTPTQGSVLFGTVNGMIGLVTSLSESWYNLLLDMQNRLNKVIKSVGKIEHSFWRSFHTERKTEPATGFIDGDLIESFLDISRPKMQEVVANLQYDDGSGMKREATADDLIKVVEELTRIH
Chain of CSF1R-autoinhibited (P07333 539-972 limits assumed): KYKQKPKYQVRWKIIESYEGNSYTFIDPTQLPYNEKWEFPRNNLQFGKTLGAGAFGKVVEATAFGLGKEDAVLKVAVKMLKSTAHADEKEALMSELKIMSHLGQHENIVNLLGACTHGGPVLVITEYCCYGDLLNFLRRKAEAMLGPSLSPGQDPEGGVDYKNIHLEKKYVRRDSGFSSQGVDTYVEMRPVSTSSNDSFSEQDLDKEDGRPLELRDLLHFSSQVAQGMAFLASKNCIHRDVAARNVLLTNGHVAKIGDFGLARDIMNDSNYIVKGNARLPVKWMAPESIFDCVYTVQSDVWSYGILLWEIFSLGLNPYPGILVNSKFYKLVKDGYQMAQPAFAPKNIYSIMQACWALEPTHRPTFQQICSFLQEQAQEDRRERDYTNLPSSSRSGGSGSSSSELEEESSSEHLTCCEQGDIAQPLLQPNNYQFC
Chain of RSK2(Kin.Dom.1-N-terminal) (P51812 68-327 limits assumed): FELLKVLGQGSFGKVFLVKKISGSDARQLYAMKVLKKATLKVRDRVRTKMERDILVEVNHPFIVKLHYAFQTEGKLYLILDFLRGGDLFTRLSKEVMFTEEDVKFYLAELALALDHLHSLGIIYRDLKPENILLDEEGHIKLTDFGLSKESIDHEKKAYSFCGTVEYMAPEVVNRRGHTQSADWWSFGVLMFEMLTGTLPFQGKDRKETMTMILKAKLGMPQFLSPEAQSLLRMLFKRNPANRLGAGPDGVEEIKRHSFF
Chain of GRK4 (P32298 whole entry): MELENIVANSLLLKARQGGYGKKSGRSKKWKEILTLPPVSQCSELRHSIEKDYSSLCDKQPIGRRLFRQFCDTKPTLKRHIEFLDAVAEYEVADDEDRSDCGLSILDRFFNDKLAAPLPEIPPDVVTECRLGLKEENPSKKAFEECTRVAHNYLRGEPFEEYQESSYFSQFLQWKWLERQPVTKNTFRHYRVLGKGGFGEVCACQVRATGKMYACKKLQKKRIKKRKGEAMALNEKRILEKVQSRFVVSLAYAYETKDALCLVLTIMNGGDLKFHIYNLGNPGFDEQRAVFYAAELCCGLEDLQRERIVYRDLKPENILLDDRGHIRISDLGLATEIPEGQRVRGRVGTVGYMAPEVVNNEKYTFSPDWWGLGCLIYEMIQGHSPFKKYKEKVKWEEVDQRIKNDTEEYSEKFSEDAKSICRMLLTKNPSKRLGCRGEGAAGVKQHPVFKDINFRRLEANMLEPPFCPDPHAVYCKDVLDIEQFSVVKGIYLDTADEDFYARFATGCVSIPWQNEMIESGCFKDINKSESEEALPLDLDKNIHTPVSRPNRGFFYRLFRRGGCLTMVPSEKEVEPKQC
Chain of AURKA (O14965 whole entry): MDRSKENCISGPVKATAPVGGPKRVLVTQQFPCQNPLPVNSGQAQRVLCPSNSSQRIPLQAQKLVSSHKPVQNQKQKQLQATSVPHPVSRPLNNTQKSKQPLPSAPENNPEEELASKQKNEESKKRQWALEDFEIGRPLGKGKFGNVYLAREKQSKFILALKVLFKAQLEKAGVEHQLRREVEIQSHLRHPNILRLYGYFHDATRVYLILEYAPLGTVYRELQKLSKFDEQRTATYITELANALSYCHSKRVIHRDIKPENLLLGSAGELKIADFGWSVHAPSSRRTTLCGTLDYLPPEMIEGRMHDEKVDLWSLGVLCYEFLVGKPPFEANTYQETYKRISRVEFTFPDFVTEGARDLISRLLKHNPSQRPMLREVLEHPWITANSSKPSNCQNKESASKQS
Chain of PIK3CA (P42336 whole entry): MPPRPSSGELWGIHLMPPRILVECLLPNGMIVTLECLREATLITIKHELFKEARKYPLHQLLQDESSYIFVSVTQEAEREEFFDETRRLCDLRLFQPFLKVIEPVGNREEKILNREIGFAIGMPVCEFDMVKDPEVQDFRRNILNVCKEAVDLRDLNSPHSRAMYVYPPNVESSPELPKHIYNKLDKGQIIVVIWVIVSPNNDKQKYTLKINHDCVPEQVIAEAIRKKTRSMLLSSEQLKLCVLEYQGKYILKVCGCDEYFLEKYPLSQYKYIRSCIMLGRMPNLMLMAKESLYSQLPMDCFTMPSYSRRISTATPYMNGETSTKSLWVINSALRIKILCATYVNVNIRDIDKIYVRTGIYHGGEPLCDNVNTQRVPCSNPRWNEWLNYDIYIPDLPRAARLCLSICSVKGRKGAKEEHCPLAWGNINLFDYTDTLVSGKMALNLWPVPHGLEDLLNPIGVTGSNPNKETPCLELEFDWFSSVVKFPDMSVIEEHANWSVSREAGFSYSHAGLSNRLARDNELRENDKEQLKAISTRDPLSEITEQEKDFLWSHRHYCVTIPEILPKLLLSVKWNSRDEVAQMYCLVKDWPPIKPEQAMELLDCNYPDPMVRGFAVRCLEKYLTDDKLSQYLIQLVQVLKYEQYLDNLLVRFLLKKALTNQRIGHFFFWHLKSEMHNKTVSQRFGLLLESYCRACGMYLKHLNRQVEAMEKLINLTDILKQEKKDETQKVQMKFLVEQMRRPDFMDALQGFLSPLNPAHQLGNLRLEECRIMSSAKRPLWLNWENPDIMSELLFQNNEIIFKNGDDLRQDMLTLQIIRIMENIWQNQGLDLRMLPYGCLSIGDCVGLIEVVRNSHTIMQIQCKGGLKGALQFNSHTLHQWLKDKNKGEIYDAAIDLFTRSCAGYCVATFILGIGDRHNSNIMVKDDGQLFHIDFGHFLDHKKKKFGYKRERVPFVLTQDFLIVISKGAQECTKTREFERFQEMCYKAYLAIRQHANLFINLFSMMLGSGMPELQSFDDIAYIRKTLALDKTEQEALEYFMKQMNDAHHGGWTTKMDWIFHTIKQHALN

Structure (SMILES): O=C1CCC(N2C(=O)c3cccc(NCCCCCCCCNC(=O)N4CC[C@H](NC5=Nc6cc(F)ccc6N(CC(F)F)c6ccc(Cl)cc65)C4)c3C2=O)C(=O)N1 (stereo partly drawn) [BJG-05-039, (3S)-3-((2-Chloro-5-(2,2-difluoroethyl)-8-fluoro-5H-dibenzo[b,e][1,4]diazepin-11-yl)amino)-N-(8-((2-(2,6-dioxopiperidin-3-yl)-1,3-dioxoisoindolin-4-yl)amino)octyl)pyrrolidine-1-carboxamide]
- Reduction in PAK1 expression (Nluc-PAK1; 10 nM, HEK293 Nluc-PAK1 cells, 24 hours): approximately 70%
- Concentration of half-maximal degradation of PAK1 (Nluc-PAK1; HEK293 Nluc-PAK1 cells): low nM concentrations
- Loss of the PAK1 protein (Nluc-PAK1; in the absence of drug efflux inhibitors): 70%
- remaining binding at 10 µM (CAMK2A): 39%
- remaining binding at 10 µM (PAK7): 42%
- remaining binding at 10 µM (ACVR2A): 51%
- remaining binding at 10 µM (DMPK): 52%
- remaining binding at 10 µM (GAK): 56%
- remaining binding at 10 µM (GCN2(Kin.Dom.2, S808G)): 56%
- remaining binding at 10 µM (PIK3CA): 60%
- remaining binding at 10 µM (CLK3): 62%
- remaining binding at 10 µM (CAMK1G): 63%
- remaining binding at 10 µM (GRK4): 71%
- remaining binding at 10 µM (WNK1): 74%
- remaining binding at 10 µM (PFTAIRE2): 78%
- remaining binding at 10 µM [1]: 82%
- remaining binding at 10 µM (SBK1): 82%
- remaining binding at 10 µM (STK35): 83%
- remaining binding at 10 µM (JNK2): 84%
- remaining binding at 10 µM (RIPK5): 87%
- remaining binding at 10 µM [2]: 90%
- remaining binding at 10 µM (SYK): 92%
- remaining binding at 10 µM (IKK-beta): 94%
- remaining binding at 10 µM (FGFR3(G697C)): 95%
- remaining binding at 10 µM [3]: 100%
- remaining binding at 10 µM [4]: 100%
- remaining binding at 10 µM (AURKA): 100%
- remaining binding at 10 µM (CSF1R-autoinhibited): 100%
- remaining binding at 10 µM (MARK4): 100%

From patent US20250312462A1, “PAK1 DEGRADERS AND METHODS OF USE THEREOF” (INSTITUTE FOR CANCER RESEARCH D/B/A THE RESEARCH INSTITUTE …, priority 2022, published 2025)
